Data set [1] deals with HUVEC. Put plainly: Antiproliferative activity against FGF-induced HUVEC. Type of data set: functional, cell-based. The settings on record: Homo sapiens.
The target in data set [2] is Vascular endothelial growth factor receptor 2 (Homo sapiens, UniProt P35968). The data set can be described thus: Inhibition of KDR.
The nature of data set [3]: Aqueous solubility in simulated intestinal fluid at pH 6.8. Type of data set: physicochemical.
The subject of data set [4] is HUVEC. The data set can be described thus: Antiproliferative activity against VEGF-induced HUVEC. The settings on record: Homo sapiens. The data set is classed as functional, cell-based.

The term IC50 denotes the midpoint of a concentration-inhibition curve. Lower therefore signals greater potency. As usually defined, the solubility is the concentration that dissolves in the medium under given conditions. Read a high solubility as much dissolved substance.

Structures are written as SMILES. In brackets after ≈: the same amount, converted by molar mass. A value given as a limit tells only on which side of the number the result lay.

Sequence of Vascular endothelial growth factor receptor 2 (P35968 whole entry): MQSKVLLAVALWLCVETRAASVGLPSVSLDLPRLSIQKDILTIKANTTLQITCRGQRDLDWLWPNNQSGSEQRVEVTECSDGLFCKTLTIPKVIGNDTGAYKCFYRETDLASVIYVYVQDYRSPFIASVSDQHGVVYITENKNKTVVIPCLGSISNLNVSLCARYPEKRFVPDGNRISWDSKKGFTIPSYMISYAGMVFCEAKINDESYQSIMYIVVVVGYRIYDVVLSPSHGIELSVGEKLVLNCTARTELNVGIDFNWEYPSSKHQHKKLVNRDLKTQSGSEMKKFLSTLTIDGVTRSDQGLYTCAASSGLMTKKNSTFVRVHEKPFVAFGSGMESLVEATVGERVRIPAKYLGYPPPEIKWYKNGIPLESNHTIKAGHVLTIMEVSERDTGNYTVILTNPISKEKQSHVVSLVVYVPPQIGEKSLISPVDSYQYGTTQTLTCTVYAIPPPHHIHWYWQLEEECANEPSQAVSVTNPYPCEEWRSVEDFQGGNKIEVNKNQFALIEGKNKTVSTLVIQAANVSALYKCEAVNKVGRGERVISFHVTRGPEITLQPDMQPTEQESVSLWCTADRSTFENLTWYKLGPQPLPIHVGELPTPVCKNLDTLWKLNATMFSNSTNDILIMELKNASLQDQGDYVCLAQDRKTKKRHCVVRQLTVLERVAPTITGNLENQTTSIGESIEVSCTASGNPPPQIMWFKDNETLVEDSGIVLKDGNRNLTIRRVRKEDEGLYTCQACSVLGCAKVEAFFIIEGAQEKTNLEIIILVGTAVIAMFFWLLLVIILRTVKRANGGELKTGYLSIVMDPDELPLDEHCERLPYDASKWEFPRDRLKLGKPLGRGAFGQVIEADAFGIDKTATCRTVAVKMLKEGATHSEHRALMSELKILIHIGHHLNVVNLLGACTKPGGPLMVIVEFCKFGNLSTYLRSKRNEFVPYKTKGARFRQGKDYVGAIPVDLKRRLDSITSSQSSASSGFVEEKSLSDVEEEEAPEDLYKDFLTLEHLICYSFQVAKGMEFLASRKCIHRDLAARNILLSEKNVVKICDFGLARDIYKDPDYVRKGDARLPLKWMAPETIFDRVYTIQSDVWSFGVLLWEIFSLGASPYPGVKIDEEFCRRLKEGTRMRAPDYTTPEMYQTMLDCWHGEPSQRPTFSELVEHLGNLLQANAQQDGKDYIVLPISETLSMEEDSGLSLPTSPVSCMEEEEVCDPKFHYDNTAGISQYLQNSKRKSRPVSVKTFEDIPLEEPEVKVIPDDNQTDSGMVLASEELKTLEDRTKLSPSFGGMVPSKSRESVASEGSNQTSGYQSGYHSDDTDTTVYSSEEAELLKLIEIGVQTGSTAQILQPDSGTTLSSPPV

The molecule `COc1cc2nccc(Oc3ccc4c(C(=O)Nc5ccc(Cl)cc5)cccc4c3)c2cc1OC` came in with a concentration for half-maximal inhibition (IC50) with HUVEC [1] of over 1.14 µM.

Consider `COc1cc2nccc(CN3CCc4c(cccc4C(=O)Nc4ccc(Cl)cc4)C3)c2cc1OC`, for which it took 0.165 µM to reach half-maximal inhibition in data set [2] (IC50). In addition, the concentration in solution in data set [3] (solubility) came to 12 µg/mL (≈ 24.6 µM).

As for `COc1cc2nccc(CN3CCc4c(cccc4C(=O)Nc4ccc(C(C)(C)C)cc4)C3)c2cc1OC`, the IC50 is 0.001 µM in data set [2], over 1.14 µM with HUVEC [1] and 0.006 µM in the data set with HUVEC [4]. In data set [3], this molecule came in with a solubility of 34 µg/mL (≈ 66.7 µM).

For the molecule `COCCNC(=O)c1cccc2c1CCN(Cc1ccnc3cc(OC)c(OC)cc13)C2`, in data set [2], 3 µM corresponded to half-maximal inhibition (IC50). The solubility in data set [3] was over 200 µg/mL.

Take `COc1cc2nccc(CN3CCc4c(C(=O)Nc5ccc(Cl)c(C(F)(F)F)c5)cccc4C3=O)c2cc1OC`: the 50% inhibitory concentration (IC50) in data set [2] is 0.003 µM; in the data set with HUVEC [1], over 1.14 µM; with HUVEC [4] it was 0.022 µM. The molecule also showed a solubility in data set [3] of 24 µg/mL (≈ 42.1 µM).
